Experimental data reported in patent publication US10471050B2, “2-OXO-1,2-dihydropyridine-3,5-dicarboxamide compounds as bromodomain inhibitors” (GlaxoSmithKline Intellectual Property (No. 2) Limited, priority 2015, dated 2019).
Read-outs that look alike come from different tables or passages of the source.

Assays:
[1] = biological target: T1, BRD4 BD2 (Homo sapiens, UniProt O60885, Y97A); test: BRD4 BD2 TR-FRET competition assay; assay type: binding
T1 construct: BRD4 (1-477) (Y97A) and (Y390A); made in house; host or cells: E. coli (pET15b vector)
Experimental: Bromodomain binding was assessed utilising a time resolved fluorescent resonance energy transfer (TR-FRET) competition assay. To enable this approach a known, high affinity, pan-BET interacting small molecule was labelled with Alexa Fluor® 647, which is a far-red-fluorescent dye (Reference Compound X). Reference Compound X acts as a reporter of bromodomain binding and is the acceptor fluorophore component of the TR-FRET pair. Europium chelate, conjugated to an anti-6*His antibody, was utilised as the donor fluorophore in the TR-FRET pair. […] A TR-FRET signal is generated when the donor and acceptor fluorophores are in close proximity, between 20-80 Å, which is enabled in this assay by binding of Reference Compound X to the bromodomain protein.
In order to generate a TR-FRET signal, donor fluorophore is excited by a laser at λ337 nm, which subsequently leads to emission at λ618 nm. If the acceptor fluorophore is in close proximity then energy transfer can occur, which leads to emission of Alexa Fluor® 647 at λ665 nm. In the presence of competitor compound, Reference Compound X can be displaced from binding to the bromodomain. If displacement occurs, the acceptor fluorophore is no longer in proximity to the donor fluorophore, which prevents fluorescent energy transfer and, subsequently, a loss of Alexa Fluor® 647 emission at λ665 nm.
(§1) The competition of the compounds of formula (I) with Reference Compound X for binding to the BET family (BRD2, BRD3, BRD4 and BRDT) was assessed using protein truncates spanning both bromodomain 1 (BD1) and bromodomain 2 (BD2). In order to monitor differential binding to either BD1 or BD2, single residue mutations of key tyrosines to alanine were made in the acetyl lysine binding pockets. To validate this approach, a double residue mutant tandem domain protein was produced for each of the BET family members. Utilising a Fluorescence Polarisation approach, binding affinities for each of the single and double mutants for Reference Compound X were determined.
Final purification was completed by Superdex 200 prep grade size exclusion column. Purified protein was stored at −80° C. in 20 mM HEPES pH 7.5 and 100 mM NaCl.
All assay components were dissolved in an assay buffer composing of 50 mM HEPES pH7.4, 50 mM NaCl, 5% Glycerol, 1 mM DTT and 1 mM CHAPS. Reference Compound X was diluted, in assay buffer containing 20 nM single mutant, tandem bromodomain protein, to a concentration equivalent to 2*Kd for this bromodomain. The solution containing bromodomain and Reference Compound X was added to dose response dilutions of test compound or DMSO vehicle (a maximum of 0.5% DMSO is used in this assay) in Greiner 384 well black low volume microtitre plates and subsequently incubated for 30 minutes at room temperature. An equal volume of 3 nM of anti-6*His Europium chelate was added to all wells, followed by a further 30 minute incubation at room temperature. TR-FRET was detected using a Perkin Elmer Multimode plate reader, by exciting the donor fluorophore at λ337 nm and subsequently, after a delay of 50 μsecs, measuring emission of the donor and acceptor fluorophores at λ615 nm and λ665 nm, respectively. In order to control these assays, 16 replicates each of uninhibited (DMSO vehicle) and inhibited (10*IC50 concentrations of Example 11 of WO 2011/054846A1) TR-FRET assays were included on every microtitre plate.
cA four parameter curve fit of the following form was then applied: y=a+((b−a)/(1+(10^x/10^c)^d)
Where ‘a’ is the minimum, ‘b’ is the Hill slope, ‘c’ is the pIC50 and ‘d’ is the maximum.

[2] = system: BET family (BRD2, BRD3, BRD4 and BRDT) tandem bromodomain proteins, Tyr to Ala mutants; test: Fluorescence Polarisation binding of Reference Compound X to single and double mutant tandem BET proteins; set-up: species or system Human
Experimental: as §1, with “determined. […] The affinities of the single mutated bromdomain tandem proteins for Reference Compound X were equi-potent with the corresponding non-mutated BET protein. […] In the TR-FRET competition assay, Reference Compound X is used at a concentration that is equivalent to the Kd for the non-mutated bromodomain, which ensures that no binding at the mutated bromodomain is detected.” for “determined.”
Protein production: Recombinant Human Bromodomains [(BRD2 (1-473) (Y113A) and (Y386A), BRD3 (1-435) (Y73A) and (Y348A) BRD4 (1-477) (Y97A) and (Y390A) and BRDT (1-397) (Y66A) and (Y309A)] were expressed in E. coli cells (in pET15b vector for BRD2/3/4 and in pET28a vector for BRDT) with a 6-His tag at the N-terminal. The His-tagged Bromodomain pellet was resuspended in 50 mM HEPES (pH7.5), 300 mM NaCl, 10 mM imidazole & 1 μl/ml protease inhibitor cocktail and extracted from the E. coli cells using sonication and purified using a nickel sepharose high performance column, the proteins were washed and then eluted with a linear gradient of 0-500 mM imidazole with buffer 50 mM HEPES (pH7.5), 150 mM NaCl, 500 mM imidazole, over 20 column volumes. Final purification was completed by Superdex 200 prep grade size exclusion column. Purified protein was stored at −80° C. in 20 mM HEPES pH 7.5 and 100 mM NaCl. Protein identity was confirmed by peptide mass fingerprinting and predicted molecular weight confirmed by mass spectrometry.

[3] = single mutant tandem BRD4, read-out: pIC50 in the BRD4 BD2 assay (converted)
[4] = average of N recorded values, read-out: BRD4 BD2 IC50 (average value) (converted)

Row | SMILES | IC50 [1, 3] [nM] | also measured
1 | CNC(=O)c1cc(C(=O)NCCCC(=O)OC)cn(Cc2ccccc2)c1=O [Example 9, Methyl 4-(1-benzyl-5-(methylcarbamoyl)-6-oxo-1,6-dihydropyridine-3-carboxamido)butanoate] | 100 to 1000 | 
2 | CNC(=O)c1cc(C(=O)NCCc2ccn[nH]2)cn(Cc2ccccc2)c1=O [Example 50, N^5-(2-(1H-Pyrazol-5-yl)ethyl)-1-benzyl-N^3-methyl-2-oxo-1,2-dihydropyridine-3,5-dicarboxamide] | 100 to 1000 | 
3 | CNC(=O)c1cc(C(=O)NC)c(=O)n(Cc2cccc(C#N)c2)c1 [Example 43, 1-(3-Cyanobenzyl)-N^3,N^5-dimethyl-2-oxo-1,2-dihydropyridine-3,5-dicarboxamide] | 1000 to 100000 | 
4 | CNC(=O)c1cc(C(=O)NCCCC#N)cn(Cc2ccccc2)c1=O [Example 36, 1-Benzyl-N^5-(3-cyanopropyl)-N^3-methyl-2-oxo-1,2-dihydropyridine-3,5-dicarboxamide] | 100 to 1000 | 
5 | CCNC(=O)c1cc(C(=O)NC)c(=O)n(Cc2cccc3[nH]ccc23)c1 [Example 25, 1-((1H-Indol-4-yl)methyl)-N^5-ethyl-N^3-methyl-2-oxo-1,2-dihydropyridine-3,5-dicarboxamide] | ≤ 100 | IC50 [1, 4]: 25.1 nM
6 | CNC(=O)c1cc(C(=O)NCCC(C)N(C)C)cn(Cc2ccccc2)c1=O (stereo not shown) [Example 33, 1-Benzyl-N^5-(3-(dimethylamino)butyl)-N^3-methyl-2-oxo-1,2-dihydropyridine-3,5-dicarboxamide] | 100 to 1000 | 
7 | CNC(=O)CCNC(=O)c1cc(C(=O)NC)c(=O)n(Cc2ccccc2)c1 [Example 35, 1-Benzyl-N^3-methyl-N^5-(3-(methylamino)-3-oxopropyl)-2-oxo-1,2-dihydropyridine-3,5-dicarboxamide] | 100 to 1000 | 
8 | CNC(=O)c1cc(C(=O)NCCc2cccnc2)cn(Cc2ccccc2)c1=O [Example 40, 1-Benzyl-N^3-methyl-2 oxo-N^5-(2-(pyridin-3-yl)ethyl)-1,2-dihydropyridine-3,5-dicarboxamide] | 100 to 1000 | 
9 | CNC(=O)c1cc(C(=O)NCCc2ccncc2)cn(Cc2ccccc2)c1=O [Example 34, 1-Benyl-N^3-methyl-2-oxo-N^5-(2-(pyridin-4-yl)ethyl)-1,2-dihydropyridine-3,5-dicarboxamide] | 100 to 1000 | 
10 | CCNC(=O)c1cc(C(=O)NC)c(=O)n(Cc2cccc(OCCO)c2)c1 [Example 20, N^5-Ethyl-1-(3-(2-hydroxyethoxy)benzyl)-N^3-methyl-2-oxo-1,2-dihydropyridine-3,5-dicarboxamide] | 100 to 1000 | IC50 [1, 4]: 251 nM
11 | COc1ccc2c(c1)C(c1ccc(Cl)cc1)=N[C@@H](CC(=O)NCCCCCNC(=O)CCCCCC1(C)/C(=C/C=C/C=C/C3=[N+](CCCCS(=O)(=O)O)c4ccc(S(=O)(=O)O)cc4C3(C)C)N(CCCCS(=O)(=O)[O-])c3ccc(S(=O)(=O)O)cc31)c1nnc(C)n1-2 (stereo partly shown) [Reference Compound X] |  | reduction in Kd, double mutant tandem proteins versus non mutated wild type tandem BET proteins ([2]; double residue Tyr to Ala mutant tandem protein of each BET family member): > 1000 fold; affinity of single mutated bromodomain tandem proteins versus corresponding non-mutated BET protein ([2]; single Tyr to Ala mutants): equi-potent; reduction of Kd of the interaction between the mutated bromodomain and Reference Compound X ([2]; single mutation of Tyrosine to Alanine): > 1000 fold
12 | CNC(=O)c1cc(C(=O)NCCC#N)cn(Cc2ccccc2)c1=O [Example 37, 1-Benzyl-N^5-(2-cyanoethyl)-N^3-methyl-2-oxo-1,2-dihydropyridine-3,5-dicarboxamide] | 100 to 1000 | 
13 | CNC(=O)CCCNC(=O)c1cc(C(=O)NC)c(=O)n(Cc2ccccc2)c1 [Example 5, 1-Benzyl-N^3-methyl-N^5-(4-(methylamino)-4-oxobutyl)-2-oxo-1,2-dihydropyridine-3,5-dicarboxamide] | 100 to 1000 | 
14 | CNC(=O)c1cc(C(=O)NCCc2cn[nH]c2)cn(Cc2cccc(C)c2)c1=O [Example 13, N^5-(2-(1H-Pyrazol-4-yl)ethyl)-N^3-methyl-1-(3-methylbenzyl)-2-oxo-1,2-dihydropyridine-3,5-dicarboxamide] | ≤ 100 | IC50 [1, 4]: 100 nM
15 | CNC(=O)c1cc(C(=O)NCCc2ccccn2)cn(Cc2ccccc2)c1=O [Example 10, 1-Benzyl-N^3-methyl-2-oxo-N^5-(2-(pyridin-2-yl)ethyl)-1,2-dihydropyridine-3,5-dicarboxamide] | 100 to 1000 | 
16 | CCNC(=O)c1cc(C(=O)NC)c(=O)n(Cc2cccc(C)c2F)c1 [Example 22, N^5-Ethyl-1-(2-fluoro-3-methylbenzyl)-N^3-methyl-2-oxo-1,2-dihydropyridine-3,5-dicarboxamide] | 100 to 1000 | 
17 | CNC(=O)c1cc(C(=O)NCC(C)OC)cn(Cc2ccccc2)c1=O (stereo not shown) [Example 29, 1-Benzyl-N^5-(2-methoxypropyl)-N^3-methyl-2-oxo-1,2-dihydropyridine-3,5-dicarboxamide] | 1000 to 100000 | 
